PubChem BioAssay (NCI)
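The concentration for 50% growth inhibition is given as GI50. At the TGI there is no net growth.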

How the values were obtained:
Experiment in all cases: NCI tumour cell line growth inhibition, 384-well format
SK-MEL-28 melanoma = system: SK-MEL-28 melanoma
RPMI-8226 leukemia = system: RPMI-8226 leukemia
SK-MEL-5 melanoma = system: SK-MEL-5 melanoma
IGROV1 ovarian = system: IGROV1 ovarian
HT29 colon = system: HT29 colon
OVCAR-5 ovarian = system: OVCAR-5 ovarian
786-0 renal = system: 786-0 renal
A549 NSCLC = system: A549 NSCLC
NCI-H226 lung = system: NCI-H226 lung
SNB-75 CNS = system: SNB-75 CNS
SW-620 colon = system: SW-620 colon
NCI-H23 lung = system: NCI-H23 lung
ACHN renal = system: ACHN renal
MCF7 breast = system: MCF7 breast
RXF 393 renal = system: RXF 393 renal
M14 melanoma = system: M14 melanoma
SK-OV-3 ovarian = system: SK-OV-3 ovarian
MALME-3M melanoma = system: MALME-3M melanoma
HOP-62 NSCLC = system: HOP-62 NSCLC
A498 renal = system: A498 renal
BT-549 breast = system: BT-549 breast
EKVX NSCLC = system: EKVX NSCLC
T-47D breast = system: T-47D breast
HS 578T breast = system: HS 578T breast
SK-MEL-2 melanoma = system: SK-MEL-2 melanoma
COLO 205 colon = system: COLO 205 colon
MOLT-4 leukemia = system: MOLT-4 leukemia
HCC-2998 colon = system: HCC-2998 colon
OVCAR-4 ovarian = system: OVCAR-4 ovarian
UO-31 renal = system: UO-31 renal
CAKI-1 renal = system: CAKI-1 renal
HL-60(TB) leukemia = system: HL-60(TB) leukemia
CCRF-CEM leukemia = system: CCRF-CEM leukemia
NCI-H522 lung = system: NCI-H522 lung
TK-10 renal = system: TK-10 renal
SR leukemia = system: SR leukemia
HOP-92 NSCLC = system: HOP-92 NSCLC
LOX IMVI melanoma = system: LOX IMVI melanoma
SF-268 CNS = system: SF-268 CNS
NCI-H460 NSCLC = system: NCI-H460 NSCLC
DU-145 prostate = system: DU-145 prostate
SN12C renal = system: SN12C renal
NCI-H322M lung = system: NCI-H322M lung
MDA-MB-231 breast = system: MDA-MB-231 breast
UACC-257 melanoma = system: UACC-257 melanoma
OVCAR-3 ovarian = system: OVCAR-3 ovarian
SF-539 CNS = system: SF-539 CNS

COc1nn(C)cc1Nc1nccc(-c2c[nH]c3c(NC(=O)[C@@H](C)N4CCN(C)CC4)cccc23)n1
GI50 (SK-MEL-28 melanoma): 26.9 µM
TGI (SK-MEL-28 melanoma): > 66.1 µM
GI50 (RPMI-8226 leukemia): 11.2 µM
TGI (RPMI-8226 leukemia): 26.6 µM
GI50 (SK-MEL-5 melanoma): 14.5 µM
TGI (SK-MEL-5 melanoma): 28.3 µM
GI50 (IGROV1 ovarian): 18.8 µM
TGI (IGROV1 ovarian): 52.4 µM
GI50 (HT29 colon): 17.7 µM
TGI (HT29 colon): 32.8 µM
GI50 (OVCAR-5 ovarian): 25.1 µM
TGI (OVCAR-5 ovarian): 65.2 µM
GI50 (786-0 renal): 18.4 µM
TGI (786-0 renal): 41.5 µM
GI50 (A549 NSCLC): 25.7 µM
TGI (A549 NSCLC): > 59.9 µM
GI50 (NCI-H226 lung): 9.15 µM
TGI (NCI-H226 lung): 31.6 µM
GI50 (SNB-75 CNS): 17.7 µM
TGI (SNB-75 CNS): 32 µM
GI50 (SW-620 colon): 21 µM
TGI (SW-620 colon): 40.3 µM
GI50 (NCI-H23 lung): 17.4 µM
TGI (NCI-H23 lung): 42.3 µM
GI50 (ACHN renal): 21.3 µM
TGI (ACHN renal): > 67.2 µM
GI50 (MCF7 breast): 18 µM
TGI (MCF7 breast): > 71.9 µM
GI50 (RXF 393 renal): 14.9 µM
TGI (RXF 393 renal): 30.6 µM
GI50 (M14 melanoma): 16.1 µM
TGI (M14 melanoma): 31.2 µM
GI50 (SK-OV-3 ovarian): 9.78 µM
TGI (SK-OV-3 ovarian): 31.6 µM
GI50 (MALME-3M melanoma): 14.9 µM
TGI (MALME-3M melanoma): 29.2 µM
GI50 (HOP-62 NSCLC): 29.7 µM
TGI (HOP-62 NSCLC): > 89.1 µM
GI50 (A498 renal): 14.2 µM
TGI (A498 renal): > 60.4 µM
GI50 (BT-549 breast): 17.2 µM
TGI (BT-549 breast): 32.4 µM
GI50 (EKVX NSCLC): 18.7 µM
TGI (EKVX NSCLC): 49.5 µM
GI50 (T-47D breast): 29 µM
TGI (T-47D breast): > 89.4 µM
GI50 (HS 578T breast): 13 µM
TGI (HS 578T breast): 25.9 µM
GI50 (SK-MEL-2 melanoma): 14.7 µM
TGI (SK-MEL-2 melanoma): 29.5 µM
GI50 (COLO 205 colon): 20.5 µM
TGI (COLO 205 colon): 36.9 µM
GI50 (MOLT-4 leukemia): 13.2 µM
TGI (MOLT-4 leukemia): 26.4 µM
GI50 (HCC-2998 colon): 19.5 µM
TGI (HCC-2998 colon): 37.3 µM
GI50 (OVCAR-4 ovarian): 30.2 µM
TGI (OVCAR-4 ovarian): > 62.1 µM
GI50 (UO-31 renal): 17.3 µM
TGI (UO-31 renal): 32.5 µM
GI50 (CAKI-1 renal): 11.7 µM
TGI (CAKI-1 renal): 28.6 µM
GI50 (HL-60(TB) leukemia): 11.8 µM
TGI (HL-60(TB) leukemia): 24.1 µM
GI50 (CCRF-CEM leukemia): 15.9 µM
TGI (CCRF-CEM leukemia): 29.4 µM
GI50 (NCI-H522 lung): 10.2 µM
TGI (NCI-H522 lung): 26.5 µM
GI50 (TK-10 renal): 20.5 µM
TGI (TK-10 renal): > 60 µM
GI50 (SR leukemia): 9.69 µM
TGI (SR leukemia): 21.5 µM
GI50 (HOP-92 NSCLC): 20.4 µM
TGI (HOP-92 NSCLC): 47.6 µM
GI50 (LOX IMVI melanoma): 15.1 µM
TGI (LOX IMVI melanoma): 28.4 µM
GI50 (SF-268 CNS): 18.4 µM
TGI (SF-268 CNS): 37 µM
GI50 (NCI-H460 NSCLC): 25.4 µM
TGI (NCI-H460 NSCLC): > 77 µM
GI50 (DU-145 prostate): 40.4 µM
TGI (DU-145 prostate): > 100 µM
GI50 (SN12C renal): 26 µM
TGI (SN12C renal): > 100 µM
GI50 (NCI-H322M lung): > 52.3 µM
TGI (NCI-H322M lung): > 100 µM
GI50 (MDA-MB-231 breast): 28 µM
TGI (MDA-MB-231 breast): > 95.5 µM
GI50 (UACC-257 melanoma): 16.9 µM
TGI (UACC-257 melanoma): 30.7 µM
GI50 (OVCAR-3 ovarian): 18.7 µM
TGI (OVCAR-3 ovarian): 51.2 µM
GI50 (SF-539 CNS): 14.8 µM
TGI (SF-539 CNS): 30.3 µM
